Experimental data from US20100222434A1, “PHARMACEUTICAL COMPOSITION FOR […]-BETA PROTEIN ACCUMULATION” (Sumitomo Chemical Company, Limited, priority 2007, published 2010).

System: Aβ accumulation in cultured nerve cells (CHP212 cells)
Assay: Measurement of fluctuation in the amount of Aβ accumulation in cultured nerve cells
Assay type: cell-based
Conditions: human neuroblastoma CHP212 cells; Aβ in the medium by ELISA (Amyloid β1-42 kit) 48 hours after addition of test substance; 10^−11 M to 10^−6 M; versus DMSO control (100%)
Source text: FIG. 1 is a diagram showing results of measuring fluctuation caused by a test substance of the formula (II) in the amount of Aβ accumulation in cultured nerve cells (CHP212 cells).
In the diagram, each column represents, starting from the left, a result of measurement obtained in a control well to which only a solvent (DMSO) has been added, in a well to which the test substance has been added so that its final concentration can be 10^−11 M (10^−11 M), in a well to which the test substance has been added so that its final concentration can be 10^−10 M (10^−10 M), in a well to which the test substance A has been added so that its final concentration can be 10^−9 M (10^−9 M), in a well to which the test substance has been added so that its final concentration can be 10^−8 M (10^−8 M), in a well to which the test substance has been added so that its final concentration can be 10^−7 M (10^−7 M), and in a well to which the test substance has been added so that its final concentration can be 10^−6 M (10^−6 M). The results are shown in % by setting a result obtained in a control well to which only a solvent (DMSO) has been added as 100%. […]

SMILES: CCCN(CC1CC1)c1ccc(C#N)c(C(F)(F)F)c1 [formula (II)]
- amount of Aβ accumulation: markedly decreased
